Tests used:
[1] = molecular target: Cholinesterase (Equus caballus) (UniProt P81908); settings: at 2 mg/mL
Description: Inhibition of horse BChE at 2 mg/ml by Ellman's method

[2] = molecular target: Acetylcholinesterase (Electrophorus electricus) (UniProt O42275); settings: at 2 mg/mL
Sequence of Acetylcholinesterase (Electrophorus electricus) (O42275 24-633 limits assumed): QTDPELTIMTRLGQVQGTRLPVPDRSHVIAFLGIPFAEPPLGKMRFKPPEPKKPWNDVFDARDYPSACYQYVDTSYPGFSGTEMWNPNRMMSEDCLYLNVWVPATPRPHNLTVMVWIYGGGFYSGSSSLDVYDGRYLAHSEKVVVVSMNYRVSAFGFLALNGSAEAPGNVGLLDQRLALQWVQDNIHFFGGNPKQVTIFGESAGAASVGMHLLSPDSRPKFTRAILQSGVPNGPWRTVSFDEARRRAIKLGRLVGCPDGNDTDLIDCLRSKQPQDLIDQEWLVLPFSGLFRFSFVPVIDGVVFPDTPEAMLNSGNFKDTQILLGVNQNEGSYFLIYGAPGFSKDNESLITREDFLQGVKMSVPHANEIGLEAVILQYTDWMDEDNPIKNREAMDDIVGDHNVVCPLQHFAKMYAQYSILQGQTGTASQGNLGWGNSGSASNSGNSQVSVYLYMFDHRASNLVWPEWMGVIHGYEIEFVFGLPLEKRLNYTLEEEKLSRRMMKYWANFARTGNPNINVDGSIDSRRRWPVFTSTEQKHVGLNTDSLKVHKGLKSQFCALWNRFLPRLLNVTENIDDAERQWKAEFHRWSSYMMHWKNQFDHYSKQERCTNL
Description: Inhibition of electric eel AChE at 2 mg/ml by Ellman's method

Sequence of Cholinesterase (Equus caballus) (P81908 whole entry): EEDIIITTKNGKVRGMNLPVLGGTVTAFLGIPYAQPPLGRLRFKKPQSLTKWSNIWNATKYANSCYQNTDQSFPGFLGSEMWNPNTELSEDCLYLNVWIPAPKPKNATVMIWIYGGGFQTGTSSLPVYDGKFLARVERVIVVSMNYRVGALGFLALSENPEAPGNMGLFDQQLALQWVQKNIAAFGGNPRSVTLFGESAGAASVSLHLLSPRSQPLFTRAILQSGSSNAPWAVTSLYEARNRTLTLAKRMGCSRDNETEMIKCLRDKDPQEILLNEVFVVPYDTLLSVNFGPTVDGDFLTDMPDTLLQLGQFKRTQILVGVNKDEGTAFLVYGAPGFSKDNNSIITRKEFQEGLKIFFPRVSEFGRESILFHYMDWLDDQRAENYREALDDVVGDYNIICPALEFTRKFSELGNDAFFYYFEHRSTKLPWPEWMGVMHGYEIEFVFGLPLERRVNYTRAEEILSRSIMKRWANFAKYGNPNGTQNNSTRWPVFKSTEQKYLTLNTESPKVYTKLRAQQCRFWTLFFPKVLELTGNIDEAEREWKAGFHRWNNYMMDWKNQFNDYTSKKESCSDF

SMILES | inhibition [1] | inhibition [2]
C=C(C)[C@@H]1CC[C@]2(C(=O)O)CC[C@]3(C)[C@H](CC[C@@H]4[C@@]5(C)CC[C@H](O)C(C)(C)[C@@H]5CC[C@]43C)[C@@H]12 | 2.88% | -5.33%
C[C@@H]1CC[C@H]2[C@@H](C)C(=O)O[C@@H]3O[C@@]4(C)CC[C@@H]1[C@]32OO4 | 35.6% | 2.43%
C=C1C(=O)[C@]23[C@H](CC[C@@H]1[C@@H]2O)[C@]12CO[C@@]3(O)[C@H](O)[C@H]1C(C)(C)CC[C@@H]2O | -8.92% | -3.57%
COC(=O)[C@H]1[C@H]2C[C@@H]3c4[nH]c5cc(OC)ccc5c4CCN3C[C@H]2C[C@@H](OC(=O)c2cc(OC)c(OC)c(OC)c2)[C@@H]1OC | 15.3% | 5.06%
COc1cc2c3cc1Oc1c(OC)c(OC)cc4c1[C@@H](Cc1ccc(O)c(c1)Oc1ccc(cc1)C[C@@H]3N(C)CC2)N(C)CC4 | 68.5% | 11.4%
COc1cc(CNC(=O)CCCC/C=C/C(C)C)ccc1O | 6.29% | -6.53%
C/C1=C/CCC(C)(O)/C=C\C(C(C)C)C(OC(=O)c2ccc(O)cc2)C1 (centres undefined) | -0.77% | 23.7%
C[C@@H]1O[C@@H](OC[C@H]2O[C@@H](Oc3cc(O)c4c(c3)O[C@H](c3ccc(O)cc3)CC4=O)[C@H](O)[C@@H](O)[C@@H]2O)[C@H](O)[C@H](O)[C@H]1O | -0.5% | 22.1%
C[n+]1cc2c3c(ccc2c2ccc4cc5c(cc4c21)OCO5)OCO3 | 1.3% | 27%
O=c1c(O)c(-c2cc(O)c(O)c(O)c2)oc2cc(O)cc(O)c12 | -3.14% | 4.65%
CN1C[C@H](CO)C[C@@H]2c3cccc4[nH]cc(c34)C[C@H]21 | 15.3% | 6.82%
CC1(C)CCC[C@](C)([C@H]2CC[C@]3(C)[C@@H]2[C@H](O)C[C@@H]2[C@@]4(C)CC[C@H](O)C(C)(C)[C@@H]4[C@@H](O)C[C@]23C)O1 | 8.34% | 6.16%
C[C@@H]1O[C@@H](OC[C@H]2O[C@@H](Oc3c(-c4ccc(O)c(O)c4)oc4cc(O)cc(O)c4c3=O)[C@H](O)[C@@H](O)[C@@H]2O)[C@H](O)[C@H](O)[C@H]1O | 4.32% | -0.25%
CC(C)[C@@H]1NC(=O)[C@H](C)OC(=O)[C@@H](C(C)C)NC(=O)[C@@H](C(C)C)OC(=O)[C@H](C(C)C)NC(=O)[C@H](C)OC(=O)[C@@H](C(C)C)NC(=O)[C@@H](C(C)C)OC(=O)[C@H](C(C)C)NC(=O)[C@H](C)OC(=O)[C@@H](C(C)C)NC(=O)[C@@H](C(C)C)OC1=O | -1.5% | 16.6%
O=c1cc(-c2ccc(O)cc2)oc2cc(OC3O[C@H](CO)[C@@H](O)[C@H](O)[C@H]3O)cc(O)c12 (some centres undefined) | 5% | 24.9%
C/C=C/C/C=C/CCC(=O)[C@H]1O[C@H]1C(N)=O | 3.38% | -4.02%
CCCCCCC(=O)CCCCCC/C=C/C[C@@H](O)[C@H](O)[C@@](N)(CO)C(=O)O | 1.5% | -8.15%
CC[C@]12CCCN3CCc4c(n(c5ccccc45)C(=O)C1)[C@@H]32 | 0.04% | 12.1%
OC[C@@H]1CCCN2CCCC[C@H]12 | -7.44% | 1.61%
C=C[C@H]1CN2CC[C@H]1C[C@@H]2[C@@H](O)c1ccnc2ccccc12 | 9.07% | 5.94%
C/C=C(\C)C(=O)O[C@H]1CC(C)=CC(=O)[C@@]2(C)CC[C@@](O)(C(C)C)[C@H]12 | -1.66% | 16.6%

SMILES | inhibition [1] | inhibition [2]
C[C@@H]1C[C@H]2CC[C@H](O2)[C@H](C)C(=O)O[C@@H](C)C[C@@H]2CC[C@@H](O2)[C@@H](C)C(=O)O[C@H](C)C[C@H]2CC[C@@H](O2)[C@H](C)C(=O)O[C@@H](C)C[C@@H]2CC[C@@H](O2)[C@@H](C)C(=O)O1 | -1.31% | 16.4%
COc1cccc2oc(-c3ccccc3)cc(=O)c12 | 18.3% | 37.5%
CC1(C)[C@@H](O)C[C@H]2[C@](C)(O)[C@@H]3CC[C@@H]4[C@@H](O)[C@@]3(C[C@@H](O)[C@@]21O)C[C@@]4(C)O | 4.52% | -8.91%
CO[C@@H]1[C@H](OC(=O)/C=C/C=C/C=C/C=C/C(=O)O)CC[C@]2(CO2)[C@H]1[C@@]1(C)O[C@@H]1CC=C(C)C | -3.3% | -8.57%
CO[C@@]12[C@H](COC(N)=O)C3=C(C(=O)C(C)=C(N)C3=O)N1C[C@@H]1N[C@@H]12 | 3.34% | 4.01%
O=C(O)/C=C/c1ccc(O)c(O)c1 | 0.67% | 2.2%
CC(C)=CC[C@@H](OC(=O)C=C(C)C)C1=CC(=O)c2c(O)ccc(O)c2C1=O | 6.03% | 22.8%
COC[C@H]1OC(=O)c2coc3c2[C@@]1(C)C1=C(C3=O)[C@@H]2CCC(=O)[C@@]2(C)C[C@H]1OC(C)=O | -6.29% | 16.2%
COc1ccc(-c2coc3cc(O)cc(O)c3c2=O)cc1 | -9.1% | 2.29%
CC(C)C[C@H](NC(=O)[C@H]1O[C@@H]1C(=O)O)C(=O)NCCCCN=C(N)N | 12.1% | -7.43%
C[C@H]1[C@H]2CC[C@H]3[C@@H]4CC=C5C[C@@H](N(C)C)CC[C@]5(C)[C@H]4CC[C@]23CN1C | 45.2% | 29.9%
C[C@@H]1C(=O)O[C@H]2[C@H](O)[C@@]34[C@H]5C[C@@H](C(C)(C)C)[C@]36[C@@H](OC(=O)[C@@H]6O)O[C@@]4(C(=O)O5)[C@@]12O | 9.99% | -7.35%
C[N+](C)(C)CC(O)CC(=O)O (racemic) | -2.91% | -6.56%
CC[C@@H](C)C(=O)O[C@H]1[C@H](O)[C@H]2[C@@H](CN3C[C@@H](C)CC[C@H]3[C@@]2(C)O)[C@@H]2C[C@]34O[C@]5(O)[C@@H](OC(=O)[C@](C)(O)[C@@H](C)O)CC[C@@]3(C)[C@@H]5[C@@H](OC(C)=O)[C@@H](OC(C)=O)[C@H]4[C@@]21O | -0.35% | -5.22%
CO[C@H]1/C=C/O[C@@]2(C)Oc3c(C)c(O)c4c(O)c(c(/C=N/N5CCN(C)CC5)c(O)c4c3C2=O)NC(=O)/C(C)=C\C=C\[C@H](C)[C@H](O)[C@@H](C)[C@@H](O)[C@@H](C)[C@H](OC(C)=O)[C@@H]1C | 1.88% | 16.2%
COC(=O)[C@@H]1[C@H]2C[C@H]3c4[nH]c5ccccc5c4CCN3C[C@@H]2CC[C@@H]1O | -2.5% | 16.2%
CN1c2ccccc2C(=O)N2CCc3c([nH]c4ccccc34)[C@@H]21 | 26% | 12.4%
O=c1oc2ccccc2c(O)c1Cc1c(O)c2ccccc2oc1=O | 5.48% | 12.3%
O=C1C[C@@H](c2ccc(O)c(O)c2)Oc2cc(O[C@@H]3O[C@H](CO)[C@@H](O)[C@H](O)[C@H]3O)cc(O)c21 | -9.51% | 25.4%
CC[C@H]1CN2CCc3cc(OC)c(OC)cc3[C@@H]2C[C@@H]1C[C@H]1NCCc2cc(OC)c(OC)cc21 | 1.38% | 13.7%
O=c1c(-c2ccc(O)cc2)coc2cc(O[C@@H]3O[C@H](CO)[C@@H](O)[C@H](O)[C@H]3O)ccc12 | -0.76% | 17.6%

SMILES | inhibition [1] | inhibition [2]
CN1[C@H]2CC(=O)C[C@@H]1C(O)C2 (some centres undefined) | -3.92% | -7.3%
N[C@@H](Cn1oc(=O)[nH]c1=O)C(=O)O | 2.65% | 23.1%
O=C1Nc2ccccc2/C1=C1/Nc2ccccc2C1=O | 13.7% | 7.97%
COc1ccc2c3c([nH]c2c1)C(C)=NCC3 | 0.63% | 40.4%
CC1=C2C(=O)[C@H]3[C@@H](CC=C4C[C@@H](O)CC[C@@]43C)[C@@H]2CC[C@]12O[C@@H]1C[C@H](C)CN[C@H]1[C@H]2C | 5.64% | -9.1%
CC1=C[C@]23C(=O)[C@@H](C=C(CO)[C@@H](O)[C@]2(O)[C@H]1O)[C@H]1[C@@H](C[C@H]3C)C1(C)C | -1.75% | -4.51%
COc1ccc(-c2cc(=O)c3c(O)cc(O[C@@H]4O[C@H](CO[C@@H]5O[C@@H](C)[C@H](O)[C@@H](O)[C@H]5O)[C@@H](O)[C@H](O)[C@H]4O)cc3o2)cc1O | 7.92% | 9.59%
CN1[C@@H]2CC[C@H]1C[C@@H](OC(=O)[C@H](CO)c1ccccc1)C2 | 3.5% | 15.5%
Cc1cc2cc3c(C)cc(=O)oc3c(C)c2o1 | 2.42% | 14.3%
C=C[C@]12CN(C)[C@@H]3[C@H]4CO[C@H](C[C@H]41)[C@]1(C(=O)Nc4ccccc41)[C@@H]32 | 31.1% | 6.89%
C[C@@H]1O[C@@H](O[C@H]2C(Oc3cc(O)c4c(=O)c(O)c(-c5ccc(O)cc5)oc4c3)O[C@H](CO)[C@@H](O)[C@@H]2O)[C@H](O)[C@H](O)[C@H]1O (some centres undefined) | -4.78% | 24.5%
Cc1coc2c1C(=O)C(=O)c1c-2ccc2c1CCCC2(C)C | -0.66% | 13.1%
COc1ccc2c(OC)c3ccoc3nc2c1OC | 6.79% | 39.3%
COc1cc2c(cc1CC=C(C)C)C(=O)C[C@@H](c1ccc(O)cc1)O2 | 4.89% | 23.2%
CC1=C(/C=C/C(C)=C/C=C/C(C)=C/C(=O)O)C(C)(C)CCC1 | -0.7% | 9.3%
C=C(C)[C@@H]1CC[C@]2(CO)CC[C@]3(C)[C@H](CC[C@@H]4[C@@]5(C)CC[C@H](O)C(C)(C)[C@@H]5CC[C@]43C)[C@@H]12 | 0.47% | 7.09%
COc1cc2c(cc1O)CCN[C@H]2C | -4.77% | 10.8%
O=c1c(O)c(-c2ccc(O)cc2)oc2cc(O)cc(O)c12 | 5.23% | 20%
CO[C@@H]1[C@@H](OC)[C@H](C)[C@@](O)(CC(=O)O)O[C@H]1[C@H](C)[C@H]1O[C@@]2(CC[C@@](C)([C@H]3CC[C@@](C)([C@@H]4O[C@@H]([C@H]5O[C@](C)(O)[C@H](C)C[C@@H]5C)C[C@@H]4O[C@@H]4C[C@H](OC)[C@@H](OC)[C@H](C)O4)O3)O2)C[C@H](O)[C@H]1C | -3.8% | 22.7%
O=C1C=C2C=C[C@@H]3C[C@@]2(O1)[C@H]1CCCCN31 | 6.85% | 7.44%

Source: ChEMBL document CHEMBL2163249, “Exploration of natural compounds as sources of new bifunctional scaffolds targeting cholinesterases and beta amyloid aggregation: the case of chelerythrine” (Bioorg Med Chem, 2012)
